In patent US12173349B2, “Lung protease nanosensors and uses thereof” (Massachusetts Institute of Technology, priority 2018, dated 2024):
Where no end group is shown, it is not given here. [ ]: non-standard residue; d: D form. FAM = carboxyfluorescein fluorophore label

Legend:
PA01 supernatant = test: cleavage of FRET-paired substrates by bacterial supernatant; assay type: biochemical, Pseudomonas aeruginosa
Method: (§1) The specificity of LAS and ELA for P. aeruginosa cleavage was tested by collecting supernatants from PA01 or Staphylococcus aureus cultures and incubating them with FRET-paired substrates LAS-Q and ELA-Q in 384 well plates. […] To investigate whether the LAS and ELA substrates are also susceptible to cleavage by host proteases, each was incubated with recombinant mouse proteases.
(§2) Supernatant from PA01 and S. aureus were collected and added to substrates in 384 well plates and dequenching of FAM was monitored at 37° C. (Tecan). Fluorescence change at 30 minutes was reported. For recombinant protease assays, enzyme was added to the substrates in enzyme-specific buffer (MMP7 & 9 buffer: 50 mM Tris, 150 mM NaCl, 5 mM CaCl2), […], pH 7.5; Thrombin: PBS; NE: 100 mM HEPES, 500 mM NaCl, 0.05% Tween 20) in a 384 well plate for time-lapse fluorimetry to measure dequenching at 37° C. (Tecan).

[1] = tested on: P. aeruginosa clinical isolate strains; test: cleavage of FRET-paired substrates by clinical isolate supernatants; assay type: biochemical, Pseudomonas aeruginosa
Method: P. aeruginosa strains isolated from de-identified clinical samples were generously provided by Dr. Deborah Hung, MD, PhD (Massachusetts General Hospital). Cultures of each were grown in LB broth overnight, then were subcultured in fresh LB and each strain grown to OD-matched mid log phase (OD600˜0.5). Supernatants were collected by centrifugation and substrate cleavage was monitored as described above.

[2] = tested on: Staphylococcus aureus supernatant; test: cleavage of FRET-paired substrates by bacterial supernatant; assay type: biochemical; settings: S. aureus culture supernatant, fluorescence change at 30 minutes
Method: as §1, §2

MMP7 = target: T1, MMP7 (Mus musculus, UniProt Q10738); test: recombinant host protease cleavage assay; assay type: biochemical
T1 sequence (Q10738 95-264): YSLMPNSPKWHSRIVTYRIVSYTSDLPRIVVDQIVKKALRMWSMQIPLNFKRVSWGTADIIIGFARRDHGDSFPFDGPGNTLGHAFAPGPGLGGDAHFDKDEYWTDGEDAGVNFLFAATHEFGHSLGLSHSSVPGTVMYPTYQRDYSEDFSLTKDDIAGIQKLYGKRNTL
Method: as §1, §2

MMP13 = MMP13 (Mus musculus, UniProt P33435); test: recombinant host protease cleavage assay; assay type: biochemical
Method: as §1, §2

thrombin = thrombin (Mus musculus, UniProt P19221); test: recombinant host protease cleavage assay; assay type: biochemical
Method: as §1, §2

neutrophil elastase = target: T2, neutrophil elastase (Mus musculus, UniProt Q3UP87); test: recombinant host protease cleavage assay; assay type: biochemical
T2 sequence (Q3UP87 27-265): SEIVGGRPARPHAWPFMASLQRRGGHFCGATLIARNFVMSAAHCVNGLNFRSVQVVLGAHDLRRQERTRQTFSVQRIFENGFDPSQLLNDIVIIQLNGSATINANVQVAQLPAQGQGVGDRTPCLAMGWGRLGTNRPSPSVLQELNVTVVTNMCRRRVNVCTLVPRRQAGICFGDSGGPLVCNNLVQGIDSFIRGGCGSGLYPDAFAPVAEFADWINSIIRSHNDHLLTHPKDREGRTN
Method: as §1, §2

[3] = tested on: Eml4-Alk (EA) lung adenocarcinoma model; test: urinary ABN readout and classification in Eml4-Alk model; assay type: in vivo; settings: EA mice
Source text: To assess the generalizability of ABNs to other genetic subtypes by leveraging the Eml4-Alk (EA) model Maddalo et al., Nature 516, 423-428 (2014), an autochthonous model in which intrapulmonary administration of adenovirus encoding two short guide RNAs (sgRNAs) and Cas9 results in translocation and fusion of the Eml4 and Alk genes, yielding lung adenocarcinoma that histologically resembles human disease.
Tumors were initiated in male C57BL/6 mice between 6 and 10 weeks old as described previously (50), by intratracheal administration of 50 μL adenovirus expressing the Ad-EA vector (Viraquest) (1.5×10^8 PFU in Opti-MEM with 10 mM CaCl2)).
It was determined whether the lung nanosensors could be prospectively applied to diagnose disease. […] The classifier was also evaluated on a test cohort that combined both LUAD models and again found strong classification at 7.5 weeks and 10.5 weeks (AUC7.5 wk s=0.97; AUC10.5 wk s=0.93) (FIG. 17C).
For all urine experiments, PAR values were normalized to ABN stock concentrations and then mean normalized across all reporters in a given urine sample prior to further statistical analysis. […] Ten independent train-test trials were run for each classification problem, and classification performance was evaluated with receiver operating characteristic (ROC) statistics calculated in MATLAB. […]

[4] = tested on: 15 proteases in the LUAD protease panel; test: in vitro recombinant protease screen of FRET-paired substrates; assay type: biochemical; settings: fluorescence fold change at 45 minutes; 1 μM substrate, 12.5 nM recombinant enzyme; MP metallo-, SP serine, AP aspartic protease
Source text: Hundreds of peptide sequences have been previously designed and validated as protease substrates, leveraging known catalytic specificities of different protease families, published datasets and substrate sequences in databases like cutDB and MEROPS (Igarashi et al., Nucleic Acids Res 35, D546-549, 2007; Rawlings et al., Nucleic Acids Res 46, D624-D632, 2018). Fourteen of these substrates were nominated in an effort to cover the specificity profiles of metallo-, serine and aspartic endoproteases, all of which were included in the LUAD protease panel, and the catalytic activity of each protease-substrate pair was characterized. Quenched probes that incorporated the 14 peptide substrates were synthesized such that they fluoresce upon proteolytic cleavage to enable real-time monitoring of protease activity in vitro (FIG. 3A and Table 2). Each probe was incubated with each protease in the panel and fluorescence was monitored over 45 minutes. Shown are sample kinetic plots monitoring dequenching of the 14 FRET-paired probes when incubated with (above) and without (below) recombinant matrix metalloproteinase 3 (MMP3) (FIG. 3B). […] See also FIG. 19.
Fluorogenic protease substrates were synthesized by CPC Scientific. Recombinant proteases were purchased from Enzo Life Sciences, R&D Systems and Haematologic Technologies. For recombinant protease assays, fluorogenic substrates PPQ1-14 (1 μM final concentration) were incubated in 30 μL final volume in appropriate enzyme buffer, according to manufacturer specifications, with 12.5 nM recombinant enzyme at 37° C. (FIG. 3). Proteolytic cleavage of substrates was quantified by increases in fluorescence over time by fluorimeter (Tecan Infinite M200 Pro). Enzyme cleavage rates were quantified as relative fluorescence increase over time normalized to fluorescence before addition of protease. Hierarchical clustering was performed in GENE-E, using fluorescence fold changes at 45 minutes.

[5] = tested on: Kras and p53 mutant lung adenocarcinoma (KP mice); test: urinary ABN readout and random forest classification in KP lung adenocarcinoma model; assay type: in vivo; settings: KP mice
Method: To characterize ABN performance in vivo, 14 protease-sensitive ABNs were administered to KP mice and healthy, age and sex-matched controls at 5, 7.5 and 10.5 weeks after tumor initiation. Mouse bladders were voided one hour after intrapulmonary delivery and all fresh urine produced during the subsequent hour (from 60-120 minutes after administration) was pooled and collected. LC-MS/MS was performed and peak area ratios (defined as peak area of urinary reporter divided by peak area of spiked-in internal standard) of protease-sensitive reporters were mean-normalized within each sample to reduce mouse-to-mouse variation.
A random forest classifier was then sought to be built to enable prospective diagnosis of lung cancer in KP mice. Random forest is a high-performance classifier, applicable to a wide variety of classification tasks, that generates a collection of decision trees (a “forest”) that are sampled to produce classification results (Breiman, Machine Learning 45, 5-32, 2001). A random forest classifier was trained using 50% of control mice at 5 weeks, 7.5 weeks and 10.5 weeks, as well as 50% of KP mice at 7.5 weeks (FIG. 6A). The classifier assigned a probability that each mouse belonged to either the KP cohort or the healthy control cohort (FIG. 6B, “Training” panel), achieving perfect separation of control and KP mice. The classifier was then sought to be tested on an independent validation cohort consisting of classifier-naive KP mice at 5 weeks, 7.5 weeks and 10.5 weeks post-induction, as well as the remaining control mice from each time point.
Male B6/SV129 Kras^LSL-G12D/+; Trp53^fl/fl (KP) mice between 18 and 30 weeks old were used for lung adenocarcinoma experiments. Tumors were initiated, as described previously (DuPage et al., Nat Protoc 4, 1064-1072 (2009)), by the intratracheal administration of 50 μL of adenovirus-SPC-Cre (2.5×10^8 PFU in Opti-MEM with 10 mM CaCl2)) under isoflurane anesthesia. […] Tumor growth was monitored by micro computed tomography (microCT) imaging (General Electric) and was scored by a blinded radiation oncologist using MicroView (Parallax Innovations) (Table 4). Tumor volumes were calculated by using the ROI sphere/elliptical tool.
ABN constructs (GluFib-Substrate-PEG-840 kDa) for urinary experiments were synthesized by CPC Scientific (Sunnyvale, CA). ABNs were dosed (50 μL total volume, 20 μM concentration per ABN) by intratracheal intubation, as described above. Bladders were voided 60 minutes after ABN administration and all urine produced 60-120 min after ABN administration was collected using custom tubes in which the animals rest upon 96-well plates that capture urine. Urine was pooled and frozen at −80° C. until analysis by LC-MS/MS.
Liquid chromatography/tandem mass spectrometry was performed by Syneos Health (Princeton, NJ) using a Sciex 6500 triple quadrupole instrument. Briefly, urine samples were treated with UV irradiation to photocleave the ANP linker and liberate the Glu-Fib reporter from residual peptide fragments. Samples were extracted by solid-phase extraction and analyzed by multiple reaction monitoring by LC-MS/MS to quantify concentration of each Glu-Fib mass variant. Analyte quantities were normalized to a spiked-in internal standard and concentrations were calculated from a standard curve using peak area ratio (PAR) to the internal standard. Mean normalization was performed on PAR values to account for mouse-to-mouse differences in ABN inhalation efficiency and urine concentration.
Principal component analysis (PCA) was performed on mean normalized PAR values in the R statistical environment (Team, R.C. R, R Foundation for Statistical Computing, Vienna, Austria, 2017) using the prcomp function. Binary classification was performed using the Caret package (Kuhn, M. caret: Classification and Regression Training. (2017)) in the R statistical environment). […]

Row | Substance | cleavage by supernatant (fluorescence signal) (PA01 supernatant; PA01 culture supernatant, fluorescence change at 30 minutes) | cleavage potency by Michaelis-Menten type analysis (PA01 supernatant; range of substrate concentrations, compared with LAS substrate) | extent of cleavage compared with LAS-Q ([1]; bacterial-derived proteases) | strains whose supernatant gave significant cleavage ([1]; five clinical isolate strains) | cleavage by supernatant (fluorescence signal) [2] | cleavage by recombinant protease (MMP7) | cleavage by recombinant protease (MMP13) | cleavage by recombinant protease (thrombin) | cleavage by recombinant protease (neutrophil elastase) | urinary reporter enrichment [3] | protease class(es) cleaving the substrate in vitro [4] | urinary reporter enrichment [5]
1 | ELA-Q: FRET-paired (FAM fluorophore, Dabcyl quencher) substrate for elastases including neutrophil elastase; includes SEQ ID NO: 47 (GAAFAGK(FAM); also: Dabcyl quencher, site not given here) | Significant increases | more potently cleaved | more extensively cleaved | 3 of the 5 strains | Significant increases | resist cleavage | resist cleavage | resist cleavage | cleaved | – | – | –
2 | PP01: ABN: reporter e(+2G)(+6V)ndneeGFFsAr, ANP, substrate PQGIWGQ, nanocarrier PEG8-40 kDa (chain 1 [dE]G[+6V][dN][dD][dN][dE][dE]GFF[dS]A[dR]; not fully specified (some residues); printed as PP01: ABN: reporter e(+2G)(+6V)ndneeGFFsAr, ANP, substrate PQGIWGQ, nanocarrier PEG8-40 kDa; also: ANP photolabile linker, PEG8-40 kDa nanocarrier, linkage of reporter, ANP, substrate and carrier not given here) | – | – | – | – | – | – | – | – | – | consistent enrichment | metalloprotease-specific | not in KP mice
